Measured values: US12030896B2, “PIKfyve inhibitors” (Mayo Foundation for Medical Education and Research, priority 2018, dated 2024)
Values joined by “and” are separate entries in the source; they are usually repeats but may differ in a detail not shown here. Equal entries are not always repeated.

Key:
[1] = system: RKO (colon cancer) cells; assay: LC3 western blotting (autophagy); format: cell-based; conditions: 1 μM
[2] = system: Murine lymphoma cells (E2409, EC+F); assay: Killing of murine lymphoma cells, 48 hour assay; format: cell-based
Description: All experiments in FIG. 6 were performed using RPMI media (Life Technologies) was used as the base formulation and culture medium also contained 1 mM Sodium Pyruvate, 100 mM HEPES, 2 mM additional L-Glutamine, 55 uM 2-mercaptoethanol, and 1×MEM NEAA Solution (all from Life Technologies). Trypsin was not necessary for these non-adherent cells. Presto Blue reagent (Life Technologies) was used as an endpoint assay using the same procedure described in previously for Alamar Blue, with a 30 minute incubation time.

[3] = Pharmacokinetic study of Example 1 in mouse (IV, IP, PO); format: in vivo, Male C57BL/6 Mouse; conditions: for concentration at 0.25 h / concentration at 0.5 h / concentration at 1 h / concentration at 2 h / concentration at 4 h: male, C57BL/6, mouse, plasma, ip
Description: Species: Male C57BL/6 Mouse, fasted.
PK/PD testing of the compound was performed in mice, after IP, IV, or oral administration.

[4] = IP 30 mg/kg, individual mice M4-M6, 30 mg/kg
[5] = IV 5 mg/kg, individual mice M1-M3, 5 mg/kg
[6] = PO 30 mg/kg, individual mice M7-M9, 30 mg/kg

Cc1ccc(Nc2nc(N/N=C/c3c[nH]c4ccccc34)nc(N3CCOCC3)n2)cc1 [Example 1, (E)-4-(2-((1H-indol-3-yl)methylene)hydrazinyl)-6-morpholino-N-(p-tolyl)-1,3,5-triazin-2-amine]
induction of LC3 [1]: dramatic and rapid induction
cell killing [2]: killed by relatively low concentrations
plasma concentration ([3]; IP 30 mg/kg, 0.250 h, individual mice M4-M6, 30 mg/kg): 299 ng/mL and 314 ng/mL
plasma concentration ([3]; IP 30 mg/kg, 0.500 h, individual mice M4-M6, 30 mg/kg): 430 ng/mL and 376 ng/mL
plasma concentration ([3]; IP 30 mg/kg, 1.00 h, individual mice M4-M6, 30 mg/kg): 636 ng/mL and 492 ng/mL
plasma concentration ([3]; IP 30 mg/kg, 2.00 h, individual mice M4-M6, 30 mg/kg): 441 ng/mL and 523 ng/mL
plasma concentration ([3]; IP 30 mg/kg, 4.00 h, individual mice M4-M6, 30 mg/kg): 232 ng/mL and 158 ng/mL
plasma concentration ([3]; IP 30 mg/kg, 6.00 h, individual mice M4-M6, 30 mg/kg): 115 ng/mL and 103 ng/mL
plasma concentration ([3]; IP 30 mg/kg, 24.0 h, individual mice M4-M6, 30 mg/kg): 34.1 ng/mL and 40.7 ng/mL
Tlast ([3]; IP 30 mg/kg, individual mice M4-M6): 24.0 h
AUC0-last [3, 4]: 3110 ng·h/mL and 2925 ng·h/mL
AUC(0-inf) [3, 4]: 3512 ng·h/mL and 3588 ng·h/mL
AUCExtra [3, 4]: 18.0% and 11.5% and 18.5%
AUMCExtra [3, 4]: 54.7% and 41.4% and 56.7%
Cmax [3, 4]: 636 ng/mL and 523 ng/mL
MRT0-inf [3, 4]: 9.91 h and 13.1 h
MRT0-last [3, 4]: 6.56 h and 6.98 h
T1/2 [3, 4]: 8.19 h and 11.3 h
Tmax [3, 4]: 2.00 h
AUCExtra ([3]; IP 30 mg/kg, mean): 16.0%
AUMCExtra ([3]; IP 30 mg/kg, mean): 50.9%
Tlast ([3]; IP 30 mg/kg, mean): 24.0 h
peak concentration ([3]; IP, single 30 mg/kg dose): 534 ng/mL
plasma concentration ([3]; IV 5 mg/kg, 5 min, individual mice M1-M3, 5 mg/kg): 1500 ng/mL and 2090 ng/mL
plasma concentration ([3]; IV 5 mg/kg, 0.250 h, individual mice M1-M3, 5 mg/kg): 1270 ng/mL and 1530 ng/mL
plasma concentration ([3]; IV 5 mg/kg, 0.500 h, individual mice M1-M3, 5 mg/kg): 1060 ng/mL and 1130 ng/mL
plasma concentration ([3]; IV 5 mg/kg, 1.00 h, individual mice M1-M3, 5 mg/kg): 591 ng/mL and 678 ng/mL
plasma concentration ([3]; IV 5 mg/kg, 2.00 h, individual mice M1-M3, 5 mg/kg): 169 ng/mL and 204 ng/mL
plasma concentration ([3]; IV 5 mg/kg, 4.00 h, individual mice M1-M3, 5 mg/kg): 16.7 ng/mL and 16.4 ng/mL
plasma concentration ([3]; IV 5 mg/kg, 6.00 h, individual mice M1-M3, 5 mg/kg): 4.04 ng/mL and 3.44 ng/mL
plasma concentration ([3]; IV 5 mg/kg, 24.0 h, individual mice M1-M3): BQL
Tlast ([3]; IV 5 mg/kg, individual mice M1-M3): 6.00 h
AUC0-last [3, 5]: 1539 ng·h/mL and 1820 ng·h/mL
AUC(0-inf) [3, 5]: 1543 ng·h/mL and 1823 ng·h/mL
AUCExtra [3, 5]: 0.381% and 0.251% and 0.171%
AUMCExtra [3, 5]: 2.79% and 1.96% and 1.39%
C0 [3, 5]: 1630 ng/mL and 2442 ng/mL
Cl [3, 5]: 54.0 mL/min/kg and 45.7 mL/min/kg
MRT0-inf [3, 5]: 0.890 h and 0.847 h
MRT0-last [3, 5]: 0.875 h and 0.836 h
T1/2 [3, 5]: 0.665 h and 0.628 h
Vdss [3, 5]: 2.89 L/kg and 2.32 L/kg
AUCExtra ([3]; IV 5 mg/kg, mean): 0.268%
AUMCExtra ([3]; IV 5 mg/kg, mean): 2.05%
Tlast ([3]; IV 5 mg/kg, mean): 6.00 h
plasma concentration ([3]; PO 30 mg/kg, 0.250 h, individual mice M7-M9, 30 mg/kg): 59.6 ng/mL and 65.0 ng/mL
plasma concentration ([3]; PO 30 mg/kg, 0.500 h, individual mice M7-M9, 30 mg/kg): 84.2 ng/mL and 115 ng/mL
plasma concentration ([3]; PO 30 mg/kg, 1.00 h, individual mice M7-M9, 30 mg/kg): 145 ng/mL and 55.8 ng/mL and 75.3 ng/mL
plasma concentration ([3]; PO 30 mg/kg, 2.00 h, individual mice M7-M9, 30 mg/kg): 58.6 ng/mL and 16.2 ng/mL and 16.7 ng/mL
plasma concentration ([3]; PO 30 mg/kg, 4.00 h, individual mice M7-M9, 30 mg/kg): 12.7 ng/mL and 5.98 ng/mL and 3.78 ng/mL
plasma concentration ([3]; PO 30 mg/kg, 6.00 h, individual mice M7-M9, 30 mg/kg): 11.3 ng/mL and 7.80 ng/mL
plasma concentration ([3]; PO 30 mg/kg, 24.0 h, individual mice M7-M9): BQL
Tlast ([3]; PO 30 mg/kg, individual mice M7-M9): 6.00 h
AUC0-last [3, 6]: 291 ng·h/mL and 129 ng·h/mL and 145 ng·h/mL
AUC(0-inf) [3, 6]: 158 ng·h/mL and 162 ng·h/mL
AUCExtra [3, 6]: 6.68% and 18.1% and 10.7%
AUMCExtra [3, 6]: 25.1% and 52.3% and 41.3%
Cmax [3, 6]: 84.2 ng/mL and 115 ng/mL
MRT0-inf [3, 6]: 2.96 h and 2.14 h
MRT0-last [3, 6]: 1.72 h and 1.41 h
T1/2 [3, 6]: 1.76 h and 1.55 h
AUCExtra ([3]; PO 30 mg/kg, mean): 11.9%
AUMCExtra ([3]; PO 30 mg/kg, mean): 39.6%
Tlast ([3]; PO 30 mg/kg, mean): 6.00 h
concentration at 0.25 h ([3]; 30 mg/kg, IP 30 mg/kg, 0.250 h, individual mice M4-M6): 242 ng/mL
concentration at 0.25 h ([3]; 30 mg/kg, IP 30 mg/kg, 0.250 h, mean): 285 ng/mL
concentration at 0.5 h ([3]; 30 mg/kg, IP 30 mg/kg, 0.500 h, individual mice M4-M6): 381 ng/mL
concentration at 0.5 h ([3]; 30 mg/kg, IP 30 mg/kg, 0.500 h, mean): 396 ng/mL
concentration at 1 h ([3]; 30 mg/kg, IP 30 mg/kg, 1.00 h, individual mice M4-M6): 443 ng/mL
concentration at 1 h ([3]; 30 mg/kg, IP 30 mg/kg, 1.00 h, mean): 524 ng/mL
concentration at 2 h ([3]; 30 mg/kg, IP 30 mg/kg, 2.00 h, individual mice M4-M6): 367 ng/mL
concentration at 2 h ([3]; 30 mg/kg, IP 30 mg/kg, 2.00 h, mean): 444 ng/mL
concentration at 4 h ([3]; 30 mg/kg, IP 30 mg/kg, 4.00 h, individual mice M4-M6): 136 ng/mL
concentration at 4 h ([3]; 30 mg/kg, IP 30 mg/kg, 4.00 h, mean): 175 ng/mL
